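Cells were grown in 96-well plates and exposed to each compound for 48 hours at five concentrations; endpoints were interpolated linearly between bracketing concentrations, or set to the highest concentration if not reached. GI50: concentration for 50% inhibition of growth.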 Active and inactive are the calls of the source. No stated cut-off is given here; in the data, active = GI50 up to about 1.1 µM and inactive = higher.
Legend:
Assay in all cases: NCI tumour cell line growth inhibition, 48 h
LOX IMVI = system: LOX IMVI
SF-295 = system: SF-295
Malme-3M = system: Malme-3M
SK-MEL-2 = system: SK-MEL-2
NCI-H460 = system: NCI-H460
IGROV-1 = system: IGROV-1
NCI-H23 = system: NCI-H23
OVCAR-3 = system: OVCAR-3
UACC-257 = system: UACC-257
A549 = system: A549
HCT-116 = system: HCT-116
M14 = system: M14
HCC 2998 = system: HCC 2998
CCRF-CEM = system: CCRF-CEM
RPMI-8226 = system: RPMI-8226

Measured: GI50

CSc1cc(C(C)(C)C)ccc1C(O)c1ccc(C(C)(C)C)cc1SC
inactive: LOX IMVI 12 µM | SF-295 10.5 µM | Malme-3M 14 µM | SK-MEL-2 15.1 µM | NCI-H460 8.2 µM | IGROV-1 10.1 µM | NCI-H23 8.49 µM | OVCAR-3 12.4 µM | UACC-257 10.4 µM | A549 10.6 µM | HCT-116 5.56 µM | M14 12.2 µM | HCC 2998 18.2 µM | CCRF-CEM 10.9 µM

Cc1cccc(C(C)(C)C)c1NC(=O)CCl
inactive: LOX IMVI > 100 µM | SF-295 > 100 µM | Malme-3M > 100 µM | SK-MEL-2 > 100 µM | NCI-H460 > 100 µM | IGROV-1 > 100 µM | NCI-H23 > 100 µM | OVCAR-3 > 100 µM | UACC-257 > 100 µM | A549 > 100 µM | HCT-116 > 100 µM | M14 > 100 µM | HCC 2998 > 100 µM | CCRF-CEM > 100 µM

CN(C)CCNc1nc(-c2cccs2)cc(-c2cccs2)n1
inactive: LOX IMVI 10.5 µM | SF-295 14.3 µM | Malme-3M 15.5 µM | SK-MEL-2 16.8 µM | NCI-H460 3.85 µM | IGROV-1 24.4 µM | NCI-H23 10.5 µM | OVCAR-3 22.6 µM | UACC-257 11.6 µM | A549 15.6 µM | HCT-116 11.3 µM | M14 12.4 µM | HCC 2998 12.4 µM | CCRF-CEM 4.41 µM

CC1(C)C(=O)CCC(=O)C(C)(C)C2=CC=C(O2)C(C)(C)C(=O)CCC(=O)C(C)(C)C2=CC=C1O2
inactive: LOX IMVI > 100 µM | SF-295 > 100 µM | Malme-3M > 100 µM | SK-MEL-2 > 100 µM | NCI-H460 > 100 µM | IGROV-1 > 100 µM | NCI-H23 > 100 µM | OVCAR-3 > 100 µM | UACC-257 > 100 µM | A549 > 100 µM | HCT-116 > 100 µM | HCC 2998 > 100 µM | CCRF-CEM > 100 µM

CN(C)CCS/C(=N\c1ccccc1)N1CCCCC1
inactive: LOX IMVI 16.3 µM | RPMI-8226 22.3 µM | SF-295 83 µM | Malme-3M 18.9 µM | SK-MEL-2 16.5 µM | NCI-H460 17.5 µM | IGROV-1 16 µM | NCI-H23 19.1 µM | OVCAR-3 16 µM | UACC-257 14.7 µM | A549 91.8 µM | HCT-116 19.7 µM | M14 16.4 µM | CCRF-CEM 23.8 µM

NC(=O)NCc1c(C(N)=O)ncn1Cc1ccccc1
inactive: LOX IMVI > 100 µM | RPMI-8226 > 100 µM | SF-295 > 100 µM | NCI-H460 > 100 µM | IGROV-1 > 100 µM | NCI-H23 > 100 µM | OVCAR-3 > 100 µM | UACC-257 > 100 µM | A549 > 100 µM | HCT-116 > 100 µM | M14 > 100 µM | HCC 2998 > 100 µM | CCRF-CEM > 100 µM

CSC(=S)N(C)NC(=O)c1cccc(C(=O)NN(C)C(=S)SC)n1
inactive: LOX IMVI 31.4 µM | RPMI-8226 10.3 µM | SF-295 3.44 µM | NCI-H460 6.11 µM | IGROV-1 8.2 µM | NCI-H23 24.2 µM | UACC-257 7.48 µM | A549 14.8 µM | HCT-116 36.3 µM | M14 14.6 µM | CCRF-CEM 2.96 µM

COC(=O)c1cccc2c3ccccc3c3ccccc3c12
inactive: LOX IMVI 29.4 µM | SF-295 26.6 µM | Malme-3M 73.5 µM | SK-MEL-2 24.8 µM | IGROV-1 62.8 µM | NCI-H23 23.1 µM | OVCAR-3 21.4 µM | UACC-257 38.3 µM | A549 44.5 µM | HCT-116 37.8 µM | M14 28.5 µM | HCC 2998 43.1 µM | CCRF-CEM 27.5 µM

O=C(O)C1=C(O)C(C(=O)O)C23CCCCCCCCCCC12C(C(=O)O)C(O)=C3C(=O)O (configuration not stated)
inactive: RPMI-8226 > 100 µM | SF-295 > 100 µM | Malme-3M > 100 µM | SK-MEL-2 > 100 µM | NCI-H460 > 100 µM | IGROV-1 > 100 µM | NCI-H23 > 100 µM | OVCAR-3 > 100 µM | UACC-257 > 100 µM | A549 > 100 µM | M14 > 100 µM | HCC 2998 > 100 µM | CCRF-CEM > 100 µM

Cc1ccc(/C=C/C(=O)C(C)C)cc1
inactive: RPMI-8226 27.9 µM | SF-295 38.3 µM | SK-MEL-2 36.3 µM | NCI-H460 44.7 µM | IGROV-1 92 µM | NCI-H23 46.6 µM | OVCAR-3 32.1 µM | UACC-257 53.6 µM | A549 > 100 µM | M14 58.7 µM | HCC 2998 > 100 µM | CCRF-CEM 22.9 µM

COc1ccc(C(=O)C(c2ccc(OC)cc2)C2(O)C(=O)Nc3ccccc32)cc1 (configuration not stated)
inactive: LOX IMVI 72.9 µM | RPMI-8226 > 100 µM | SF-295 > 100 µM | Malme-3M > 100 µM | SK-MEL-2 > 100 µM | IGROV-1 > 100 µM | NCI-H23 > 100 µM | OVCAR-3 > 100 µM | UACC-257 > 100 µM | A549 > 100 µM | HCT-116 > 100 µM | M14 > 100 µM | CCRF-CEM > 100 µM

CCOC(=O)Cc1c(Cc2[nH]c(C(=O)OCc3ccccc3)c(CC(=O)OCC)c2CC(=O)OCC)[nH]c(C(=O)OCc2ccccc2)c1CC(=O)OCC
inactive: RPMI-8226 > 100 µM | SF-295 > 100 µM | Malme-3M > 100 µM | IGROV-1 > 100 µM | OVCAR-3 > 100 µM | A549 > 100 µM | HCT-116 > 100 µM | M14 > 100 µM | CCRF-CEM > 100 µM

Cc1cccc(NC(=O)C(=O)C(C2OC(=O)c3ccccc32)[N+](=O)[O-])c1C (configuration not stated)
inactive: LOX IMVI 2.4 µM | SF-295 14.9 µM | Malme-3M 3.79 µM | SK-MEL-2 5.06 µM | NCI-H460 6 µM | IGROV-1 9.82 µM | NCI-H23 5.46 µM | OVCAR-3 2.08 µM | UACC-257 5.61 µM | A549 18.3 µM | HCT-116 5.96 µM | M14 13.8 µM | HCC 2998 13.8 µM | CCRF-CEM 3.52 µM

Cc1ccc(/C=C/C(=O)c2ccc(Cl)c(Cl)c2)cc1
inactive: LOX IMVI > 100 µM | SF-295 > 100 µM | Malme-3M > 100 µM | SK-MEL-2 > 100 µM | NCI-H460 > 100 µM | IGROV-1 > 100 µM | NCI-H23 > 100 µM | OVCAR-3 > 100 µM | UACC-257 > 100 µM | A549 > 100 µM | HCT-116 > 100 µM | M14 > 100 µM | HCC 2998 > 100 µM | CCRF-CEM > 100 µM

CCn1c2ccccc2c2ccc3c(c21)C(=O)c1ccccc1C3=O
inactive: RPMI-8226 > 100 µM | SF-295 91.2 µM | Malme-3M 81.1 µM | IGROV-1 > 100 µM | NCI-H23 > 100 µM | UACC-257 > 100 µM | A549 > 100 µM | HCT-116 > 100 µM | M14 > 100 µM | HCC 2998 > 100 µM | CCRF-CEM 74.3 µM

Reference: ChEMBL document CHEMBL1201862, “PubChem BioAssay data set” (2004)
